Experimental data published in PubChem BioAssay AID743473 (The Scripps Research Institute Molecular Screening Center, 2014).

Experiments:
Experiment in all cases: metalloprotease panel inhibitors: MMPs, meprins, late-stage follow-up, selectivity assay for ADAM10 and ADAM17 inhibitor project, biochemical, QFRET, MMP1/2/8/9/10/13/14, Meprin A/B (AID 743473)
Meprin A = settings: QFRET peptide cleavage, MCA fluorescence
MMP9 = settings: QFRET peptide cleavage, MCA fluorescence
MMP8 = settings: QFRET peptide cleavage, MCA fluorescence
MMP14 = settings: QFRET peptide cleavage, MCA fluorescence
Meprin B = settings: QFRET peptide cleavage, MCA fluorescence
[1] = target: Collagenase 3 (Homo sapiens) (UniProt P45452); settings: QFRET peptide cleavage, MCA fluorescence, MMP13
MMP1 = settings: QFRET peptide cleavage, MCA fluorescence
MMP10 = settings: QFRET peptide cleavage, MCA fluorescence
MMP2 = settings: QFRET peptide cleavage, MCA fluorescence

IC50 (Meprin A) [µM]	IC50 (MMP9) [µM]	IC50 (MMP8) [µM]	IC50 (MMP14) [µM]	IC50 (Meprin B) [µM]	IC50 [1] [µM]	IC50 (MMP1) [µM]	IC50 (MMP10) [µM]	IC50 (MMP2) [µM]	SMILES
> 100	> 100	6.4	> 100	> 100	> 100	18.5	> 100	> 100	O=C1NC(=O)C(Cc2ccc(Cl)cc2)(c2ccccc2)N1 (stereo unspecified)
> 100	> 100	> 100	> 100	> 100	> 100	> 100	> 100	> 100	O=C(O)CCC(=O)c1c[nH]c2ccccc12
> 100	> 100	> 100	> 100	> 100	> 100	> 100	> 100	> 100	COc1cccc(C(=O)NNC(=O)C(=O)Nc2ccc(C)c(Cl)c2)c1
> 100	3	1.6	36.9	> 100	35.8	75	28.6	4.7	CCOc1ccc(NC(=O)CC2SC(=O)N(c3ccccc3)C2=O)cc1 (stereo unspecified)
